Experimental data: patent EP1943275B1, “INSULINOTROPIC COMPOUNDS AND USES THEREOF” (Activotec SPP Limited, priority 2005, dated 2010)
Ends that are not written are not given here.

How the values were obtained:
DPP-IV = experiment: Dipeptidyl peptidase IV (DPP-IV) assays (Example 10): DPP-IV digestion monitored by RP-HPLC; format: in vitro ADME; details: PBS/TEthA, pH 7.5, 37°
Description: Their stabilities were monitored by RP-HPLC, noting the disappearance of the intact sequence and appearance of a species missing the N terminal dipeptide or similar fragment.

[1] = Control study: chemical stability in PBS/triethanolamine solution in the absence of DPP-IV; format: physicochemical; details: no DPP-IV; for percentage of each analogue remaining: PBS/TEthA, pH 7.5, 37°
Method: In the control study, peptides were incubated with PBS/triethanolamine solution in the absence of DPP-IV to measure their chemical stability.

[2] = active form of GLP-1; DPP IV cleavage between Ala8 and Glu9; cited from earlier work
dipeptidyl peptidase IV = experiment: DPP-IV assay (Example 5): hydrolysis followed by HPLC and ES-MS; format: in vitro ADME; details: After 18 hr incubation, 37°C, 50 mM triethanolamine buffer, pH 7.8, 11 milliunits DPP-IV
Method: Biological Chemistry. 385, pp 169-177.
Briefly, 100 - 200 microgams of each peptide was dissolved in 0.5 ml of 50 mM triethanolamine buffer, pH 7.8. To this was added a 10 microlitre solution of 11 milliunits DPP-IV (Sigma) and the solutions incubated at 37°C for up to 42 hours. […] The incubations were terminated by addition of 5 microlitres TFA to each tube and 50 microlitre of each were injected onto a reversed phase 4.6 x 250 mm C18 HPLC column, eluting a gradient of 20% - 45% acetonitrile in 0.1 % TFA/water over 25 minutes. […] After 42 hours, the 2 analogues slowly degraded to a product that gave a mass spectrum consistent with the mass of the 9-37 sequence, indicating longer term instability of the urea bond. This represented as much as 15% of the product by HPLC. This degradation appeared to be non-DPP-IV related, since samples without enzyme gave the same profile.

CC[C@H](C)[C@H](NC(=O)[C@H](Cc1ccccc1)NC(=O)[C@H](CCC(=O)O)NC(=O)[C@H](CCCCN)NC(=O)[C@H](C)NC(=O)[C@H](C)NC(=O)[C@H](CCC(N)=O)NC(=O)CNC(=O)[C@H](CCC(=O)O)NC(=O)[C@H](CC(C)C)NC(=O)[C@H](Cc1ccc(O)cc1)NC(=O)[C@H](CO)NC(=O)[C@H](CO)NC(=O)[C@@H](NC(=O)[C@H](CC(=O)O)NC(=O)[C@H](CO)NC(=O)[C@@H](NC(=O)[C@H](Cc1ccccc1)NC(=O)[C@@H](NC(=O)CNC(=O)[C@H](CCC(=O)O)NC(=O)CNNC(=O)[C@@H](N)Cc1c[nH]cn1)[C@@H](C)O)[C@@H](C)O)C(C)C)C(=O)N[C@@H](C)C(=O)N[C@@H](Cc1c[nH]c2ccccc12)C(=O)N[C@@H](CC(C)C)C(=O)N[C@H](C(=O)N[C@@H](CCCCN)C(=O)NCC(=O)N[C@@H](CCCNC(=N)N)C(=O)NCC(=O)O)C(C)C [SP006, L-His-NH-NH-CH2-C(O)-Glu9-37]
percentage of each analogue remaining (DPP-IV; Time 0 hr): 95%
percentage of each analogue remaining ([1]; Time 0 hr): 98%

CC[C@H](C)[C@H](NC(=O)[C@H](Cc1ccccc1)NC(=O)[C@H](CCC(=O)O)NC(=O)[C@H](CCCCN)NC(=O)[C@H](C)NC(=O)[C@H](C)NC(=O)[C@H](CCC(N)=O)NC(=O)CNC(=O)[C@H](CCC(=O)O)NC(=O)[C@H](CC(C)C)NC(=O)[C@H](Cc1ccc(O)cc1)NC(=O)[C@H](CO)NC(=O)[C@H](CO)NC(=O)[C@@H](NC(=O)[C@H](CC(=O)O)NC(=O)[C@H](CO)NC(=O)[C@@H](NC(=O)[C@H](Cc1ccccc1)NC(=O)[C@@H](NC(=O)CNC(=O)[C@H](CCC(=O)O)NC(=O)[C@H](C)NC(=O)[C@@H](N)Cc1c[nH]cn1)[C@@H](C)O)[C@@H](C)O)C(C)C)C(=O)N[C@@H](C)C(=O)N[C@@H](Cc1c[nH]c2ccccc12)C(=O)N[C@@H](CC(C)C)C(=O)N[C@H](C(=O)N[C@@H](CCCCN)C(=O)NCC(=O)N[C@@H](CCCN=C(N)N)C(=O)NCC(=O)O)C(C)C [Native GLP-1 7-37, glucagon-like peptide-1 (7-37)]
circulating half-life [2]: less than 2 minutes

CC[C@H](C)[C@H](NC(=O)[C@H](Cc1ccccc1)NC(=O)[C@H](CCC(=O)O)NC(=O)[C@H](CCCCN)NC(=O)[C@H](C)NC(=O)[C@H](C)NC(=O)[C@H](CCC(N)=O)NC(=O)CNC(=O)[C@H](CCC(=O)O)NC(=O)[C@H](CC(C)C)NC(=O)[C@H](Cc1ccc(O)cc1)NC(=O)[C@H](CO)NC(=O)[C@H](CO)NC(=O)[C@@H](NC(=O)[C@H](CC(=O)O)NC(=O)[C@H](CO)NC(=O)[C@@H](NC(=O)[C@H](Cc1ccccc1)NC(=O)[C@@H](NC(=O)CNC(=O)[C@H](CCC(=O)O)NC(=O)[C@H](C)NNC(=O)[C@@H](N)Cc1c[nH]cn1)[C@@H](C)O)[C@@H](C)O)C(C)C)C(=O)N[C@@H](C)C(=O)N[C@@H](Cc1c[nH]c2ccccc12)C(=O)N[C@@H](CC(C)C)C(=O)N[C@H](C(=O)N[C@@H](CCCCN)C(=O)NCC(=O)N[C@@H](CCCNC(=N)N)C(=O)NCC(=O)O)C(C)C [SP008, L-His-NH-NH-CH(CH3)-C(O)-Glu9-37]
percentage of each analogue remaining (DPP-IV; Time 0 hr): 95%
percentage of each analogue remaining (DPP-IV; Time 22 hr): 95%
percentage of each analogue remaining ([1]; Time 0 hr): 98%
non-enzymatic degradation ([1]; after 47 hr, by HPLC): 20-25%

HAEGTFTSDVSSYLEG [GLP-1 7-22]
cleavage of the N terminal dipeptide by DPP-IV (dipeptidyl peptidase IV): completely cleaved

CC[C@H](C)[C@H](NC(=O)[C@H](Cc1ccccc1)NC(=O)[C@H](CCC(=O)O)NC(=O)[C@H](CCCCN)NC(=O)[C@H](C)NC(=O)[C@H](C)NC(=O)[C@H](CCC(N)=O)NC(=O)CNC(=O)[C@H](CCC(=O)O)NC(=O)[C@H](CC(C)C)NC(=O)[C@H](Cc1ccc(O)cc1)NC(=O)[C@H](CO)NC(=O)[C@H](CO)NC(=O)[C@@H](NC(=O)[C@H](CC(=O)O)NC(=O)[C@H](CO)NC(=O)[C@@H](NC(=O)[C@H](Cc1ccccc1)NC(=O)[C@@H](NC(=O)CNC(=O)[C@H](CCC(=O)O)NC(=O)CNNC(=O)[C@H](C)NC(=O)[C@@H](N)Cc1c[nH]cn1)[C@@H](C)O)[C@@H](C)O)C(C)C)C(=O)N[C@@H](C)C(=O)N[C@@H](Cc1c[nH]c2ccccc12)C(=O)N[C@@H](CC(C)C)C(=O)N[C@H](C(=O)N[C@@H](CCCCN)C(=O)NCC(=O)N[C@@H](CCCNC(=N)N)C(=O)NCC(=O)O)C(C)C [SP007, L-His-L-Ala-NH-NH-CH2-C(O)-Glu9-37]
percentage of each analogue remaining (DPP-IV; Time 0 hr): 95%
percentage of each analogue remaining (DPP-IV; Time 22 hr): <5%
percentage of each analogue remaining ([1]; Time 0 hr): 98%
percentage of each analogue remaining ([1]; Time 22 hr): 95%
percentage of each analogue remaining ([1]; Time 47 hr): 95%

CC[C@H](C)[C@H](NC(=O)[C@H](Cc1ccccc1)NC(=O)[C@H](CCC(=O)O)NC(=O)[C@H](CCCCN)NC(=O)[C@H](C)NC(=O)[C@H](C)NC(=O)[C@H](CCC(N)=O)NC(=O)CNC(=O)[C@H](CCC(=O)O)NC(=O)[C@H](CC(C)C)NC(=O)[C@H](Cc1ccc(O)cc1)NC(=O)[C@H](CO)NC(=O)[C@H](CO)NC(=O)[C@@H](NC(=O)[C@H](CC(=O)O)NC(=O)[C@H](CO)NC(=O)[C@@H](NC(=O)[C@H](Cc1ccccc1)NC(=O)[C@@H](NC(=O)CNC(=O)[C@H](CCC(=O)O)NC(=O)CONC[C@H](C)NC(=O)[C@@H](N)Cc1c[nH]cn1)[C@@H](C)O)[C@@H](C)O)C(C)C)C(=O)N[C@@H](C)C(=O)N[C@@H](Cc1c[nH]c2ccccc12)C(=O)N[C@@H](CC(C)C)C(=O)N[C@H](C(=O)N[C@@H](CCCCN)C(=O)NCC(=O)N[C@@H](CCCNC(=N)N)C(=O)NCC(=O)O)C(C)C [SP005]
percentage of each analogue remaining (DPP-IV; Time 0 hr): 95%
percentage of each analogue remaining (DPP-IV; Time 22 hr): 95%
percentage of each analogue remaining ([1]; Time 0 hr): 98%
percentage of each analogue remaining ([1]; Time 22 hr): 95%
